Blank lines part the entries; values can stand above or below the compound they belong to.
Columns and labels:
[1] = tested on: Pseudomonas aeruginosa ATCC 27853; assay: MIC assay, planktonic growth, MBEC bioFILM PA panel; details: antibiotics become less effective
Procedure: The MBEC bioFILM PA panel is designed for use in determining antimicrobial agent susceptibility of both planktonic and biofilm Pseudomonas aeruginosa.
From this test, the minimum antibiotic concentration—in the presence and absence of a compound of the present invention—that will inhibit bacterial growth in solution (“MIC Assay”) is determined. The minimum antibiotic concentration—in the presence and absence of a compound of the present invention—that will prevent attachment of bacteria to a test surface (“MBEC Assay”) is determined. Approximately 1,000,000-10,000,000 bacteria attach in the absence of antibiotics; lesser numbers attach in the presence of antibiotics.
MBEC bioFilm PA panel—Panel wells are inoculated with planktonic Pseudomonas aeruginosa using a 95 peg inoculation lid. Panels and pegged lids are then incubated at 35° C. for 18 h. Planktonic susceptibility and resistance is determined by measuring inhibition and growth in the presence of antimicrobial agents after incubation. Biofilm susceptibility and resistance is determined by measuring inhibition and growth after peg sonication, biofilm bacteria recovery, then incubation for additional 18-24 h at 35° C.

P aeruginosa 10145 [2] = assay: Synergy of Zosteric Acid (ZA) with HOCL, MIC in M9GY; assay type: cell-based
P aeruginosa 10145 [3] = assay: Synergy of Zosteric Acid (ZA) with Kathon, MIC in M9GY; assay type: cell-based; details: ZA alone
[4] = ZA alone, M9GY, highest value tested, used for SI calculations
[5] = HOCL with ZA (Qza) 250 ppm, M9GY
[6] = HOCL with ZA (Qza) 500 ppm, M9GY
[7] = HOCL with ZA (Qza) 1000 ppm, M9GY
[8] = HOCL with ZA (Qza) 2500 ppm, M9GY
[9] = HOCL with ZA (Qza) 5000 ppm, M9GY
[10] = HOCL with ZA (Qza) 7500 ppm, M9GY
[11] = HOCL with ZA (Qza) 10000 ppm, M9GY

Compound: CC(C)(C)c1ccc(OS(=O)(=O)Cl)cc1 [compound 9]
MIC values of antibiotics in the presence of the compound [1]: increased

MIC at 24 hours, QZA (P aeruginosa 10145 [2]; [4]): 10,000 ppm
MIC at 48 hours, QZA (P aeruginosa 10145 [2]; [4]): 10,000 ppm
QZA, MIC at 24 hours (ppm) (P aeruginosa 10145 [3]; 24 hours): 10,000 ppm
QZA, MIC at 48 hours (ppm) (P aeruginosa 10145 [3]; 48 hours): 10,000 ppm
Compound: O=C(O)/C=C/c1ccc(OS(=O)(=O)O)cc1 [ZA, Zosteric Acid]
MIC for ZA (P aeruginosa 10145 [2]; table note, 10,000 ppm was the highest value tested): MIC for ZA is greater than 10,000 ppm, but since it was the highest value tested it was used for SI calculations.

MIC at 24 hours, Qhocl (P aeruginosa 10145 [2]; HOCL alone, M9GY): 40 ppm
MIC at 48 hours, Qhocl (P aeruginosa 10145 [2]; HOCL alone, M9GY): 40 ppm
MIC at 24 hours, Qhocl (P aeruginosa 10145 [2]; HOCL with ZA (Qza) 0 ppm, M9GY): 50 ppm
MIC at 48 hours, Qhocl (P aeruginosa 10145 [2]; HOCL with ZA (Qza) 0 ppm, M9GY): 60 ppm
MIC at 24 hours, Qhocl (P aeruginosa 10145 [2]; [5]): 30 ppm
MIC at 48 hours, Qhocl (P aeruginosa 10145 [2]; [5]): 30 ppm
MIC at 24 hours, Qhocl (P aeruginosa 10145 [2]; [6]): 50 ppm
MIC at 48 hours, Qhocl (P aeruginosa 10145 [2]; [6]): 50 ppm
MIC at 24 hours, Qhocl (P aeruginosa 10145 [2]; [7]): 50 ppm
MIC at 48 hours, Qhocl (P aeruginosa 10145 [2]; [7]): 50 ppm
MIC at 24 hours, Qhocl (P aeruginosa 10145 [2]; [8]): 50 ppm
MIC at 48 hours, Qhocl (P aeruginosa 10145 [2]; [8]): 50 ppm
MIC at 24 hours, Qhocl (P aeruginosa 10145 [2]; [9]): 40 ppm
MIC at 48 hours, Qhocl (P aeruginosa 10145 [2]; [9]): 40 ppm
MIC at 24 hours, Qhocl (P aeruginosa 10145 [2]; [10]): 40 ppm
MIC at 48 hours, Qhocl (P aeruginosa 10145 [2]; [10]): 50 ppm
MIC at 24 hours, Qhocl (P aeruginosa 10145 [2]; [11]): 60 ppm
MIC at 48 hours, Qhocl (P aeruginosa 10145 [2]; [11]): 60 ppm
Compound: OCl [HOCl]
SI-HOCL, 24 hours (P aeruginosa 10145 [2]; HOCL with ZA (Qza) 0 ppm, M9GY): 1.25
SI-HOCL, 48 hours (P aeruginosa 10145 [2]; HOCL with ZA (Qza) 0 ppm, M9GY): 1.5
SI-HOCL, 24 hours (P aeruginosa 10145 [2]; [5]): 0.775
SI-HOCL, 48 hours (P aeruginosa 10145 [2]; [5]): 0.775
SI-HOCL, 24 hours (P aeruginosa 10145 [2]; [6]): 1.3
SI-HOCL, 48 hours (P aeruginosa 10145 [2]; [6]): 1.3
SI-HOCL, 24 hours (P aeruginosa 10145 [2]; [7]): 1.35
SI-HOCL, 48 hours (P aeruginosa 10145 [2]; [7]): 1.35
SI-HOCL, 24 hours (P aeruginosa 10145 [2]; [8]): 1.5
SI-HOCL, 48 hours (P aeruginosa 10145 [2]; [8]): 1.5
SI-HOCL, 24 hours (P aeruginosa 10145 [2]; [9]): 1.5
SI-HOCL, 48 hours (P aeruginosa 10145 [2]; [9]): 1.5
SI-HOCL, 24 hours (P aeruginosa 10145 [2]; [10]): 1.75
SI-HOCL, 48 hours (P aeruginosa 10145 [2]; [10]): 2
SI-HOCL, 24 hours (P aeruginosa 10145 [2]; [11]): 2.5
SI-HOCL, 48 hours (P aeruginosa 10145 [2]; [11]): 2.5

— patent publication US20090016990A1, “Antimicrobial Compositions” (priority 2007, published 2009)
